{
  "source": "patent EP0942911B1",
  "about": "“BENZOPYRANOPYRROLE AND BENZOPYRANOPYRIDINE ALPHA-1 ADRENERGIC COMPOUNDS” (Abbott Laboratories, priority 1996, dated 1998)",
  "experiment_in_all_cases": "biochemical",
  "key": {"α-1a adrenoreceptor": {"target": "T1, α-1a adrenoreceptor (Bos taurus, UniProt P18130)", "T1 sequence (P18130 1-466)": "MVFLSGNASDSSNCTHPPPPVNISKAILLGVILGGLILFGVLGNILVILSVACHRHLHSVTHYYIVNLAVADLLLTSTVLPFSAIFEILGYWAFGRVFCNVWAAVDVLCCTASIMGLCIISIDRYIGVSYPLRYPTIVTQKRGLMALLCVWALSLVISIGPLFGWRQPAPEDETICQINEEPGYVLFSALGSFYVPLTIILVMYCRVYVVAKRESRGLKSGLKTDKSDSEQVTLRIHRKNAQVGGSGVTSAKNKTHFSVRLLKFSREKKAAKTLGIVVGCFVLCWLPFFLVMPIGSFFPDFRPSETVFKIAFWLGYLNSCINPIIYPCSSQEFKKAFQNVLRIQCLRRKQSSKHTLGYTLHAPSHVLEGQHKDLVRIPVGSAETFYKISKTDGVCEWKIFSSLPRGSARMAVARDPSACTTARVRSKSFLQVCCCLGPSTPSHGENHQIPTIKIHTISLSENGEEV", "assay_type": "binding, bovine", "details": "read-out: Radioligand Binding (Ki, nM) 1a (Bovine)", "method_in_brief": "(§1)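 Cloned α-1a (bovine), α-1b (hamster) and α-1d (rat) adrenoreceptors were stably expressed in mouse LTK fibroblasts; membranes from roller-bottle cultures were used. Native α-1A sites came from rat submaxillary gland. Radioligand binding followed Greengrass and Bremner, with liquid scintillation read-out.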"}, "[1]": {"target": "T2, α-1A adrenoreceptor (rat submaxillary gland) (Rattus norvegicus, UniProt P43140)", "T2 sequence (P43140 1-466)": "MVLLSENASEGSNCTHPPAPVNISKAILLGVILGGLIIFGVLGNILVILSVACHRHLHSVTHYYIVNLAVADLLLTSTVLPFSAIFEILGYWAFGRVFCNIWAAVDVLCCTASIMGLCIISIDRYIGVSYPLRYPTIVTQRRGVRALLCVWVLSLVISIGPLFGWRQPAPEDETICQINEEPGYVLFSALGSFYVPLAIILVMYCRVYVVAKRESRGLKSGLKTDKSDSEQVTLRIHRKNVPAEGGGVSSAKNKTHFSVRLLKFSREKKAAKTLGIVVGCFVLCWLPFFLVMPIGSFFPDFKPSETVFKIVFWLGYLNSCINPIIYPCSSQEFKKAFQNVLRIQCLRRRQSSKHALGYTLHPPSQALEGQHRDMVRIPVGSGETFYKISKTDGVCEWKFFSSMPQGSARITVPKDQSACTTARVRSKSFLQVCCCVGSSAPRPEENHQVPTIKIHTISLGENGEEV", "assay_type": "binding", "details": "read-out: Radioligand Binding (Ki, nM) 1A (Rat)", "method_in_brief": "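Radioligand binding to α-1A sites in membrane homogenates of rat submaxillary gland, run after Greengrass and Bremner. Bound radioactivity counted by liquid scintillation.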"}, "α-1b adrenoreceptor": {"target": "T3, α-1b adrenoreceptor (Mesocricetus auratus, UniProt P18841)", "T3 sequence (P18841 1-515)": "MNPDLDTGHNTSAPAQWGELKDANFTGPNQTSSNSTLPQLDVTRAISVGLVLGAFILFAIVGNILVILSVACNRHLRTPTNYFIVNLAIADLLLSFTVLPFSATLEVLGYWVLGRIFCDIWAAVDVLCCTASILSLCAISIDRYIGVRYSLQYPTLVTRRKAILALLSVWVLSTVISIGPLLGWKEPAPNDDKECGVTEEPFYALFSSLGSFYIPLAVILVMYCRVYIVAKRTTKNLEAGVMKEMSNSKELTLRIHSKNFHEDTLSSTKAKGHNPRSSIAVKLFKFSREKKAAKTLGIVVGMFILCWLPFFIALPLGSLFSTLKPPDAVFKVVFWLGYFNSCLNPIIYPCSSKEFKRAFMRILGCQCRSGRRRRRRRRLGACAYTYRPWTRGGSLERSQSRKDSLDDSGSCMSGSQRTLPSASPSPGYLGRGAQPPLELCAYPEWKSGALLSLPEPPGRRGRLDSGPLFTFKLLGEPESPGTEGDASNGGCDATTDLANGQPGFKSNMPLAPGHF", "assay_type": "binding, hamster", "details": "read-out: Radioligand Binding (Ki, nM) 1b (Hamster)", "method_in_brief": "as §1"}, "α-1d adrenoreceptor": {"target": "T4, α-1d adrenoreceptor (Rattus norvegicus, UniProt P23944)", "T4 sequence (P23944 1-561)": "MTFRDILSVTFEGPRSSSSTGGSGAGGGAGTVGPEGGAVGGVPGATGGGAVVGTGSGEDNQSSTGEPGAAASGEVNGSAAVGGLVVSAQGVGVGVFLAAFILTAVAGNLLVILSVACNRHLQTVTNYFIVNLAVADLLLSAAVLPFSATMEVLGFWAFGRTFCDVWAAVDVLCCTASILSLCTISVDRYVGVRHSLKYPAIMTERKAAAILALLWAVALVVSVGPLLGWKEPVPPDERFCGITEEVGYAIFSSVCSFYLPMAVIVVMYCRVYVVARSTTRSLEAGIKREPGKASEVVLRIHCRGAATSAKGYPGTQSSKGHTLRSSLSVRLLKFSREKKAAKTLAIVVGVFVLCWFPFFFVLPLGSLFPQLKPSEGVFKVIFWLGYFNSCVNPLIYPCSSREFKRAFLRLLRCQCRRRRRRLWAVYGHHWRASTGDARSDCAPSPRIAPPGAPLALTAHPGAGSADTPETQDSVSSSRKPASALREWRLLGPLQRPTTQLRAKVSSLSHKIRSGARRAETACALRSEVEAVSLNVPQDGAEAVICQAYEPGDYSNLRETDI", "assay_type": "binding", "details": "read-out: Radioligand Binding (Ki, nM) 1d (Rat)", "method_in_brief": "as §1"}, "[2]": {"details": "[3H]-prazosin radioligand, cloned receptor in LTK cell membranes"}, "[3]": {"details": "[3H]-prazosin radioligand, rat submaxillary gland membranes"}},
  "note": "Where a name gives a salt, the structure may show the parent alone. Read-outs that look alike come from different tables or passages of the source.",
  "data": [
    {"smiles": "COc1cccc2c1[C@@H]1CN(CCCCn3c(=O)[nH]c4c(sc5c(Cl)ccnc54)c3=O)C[C@H]1CO2", "note": "[Example 19, 3-[4-((3aS,9bR)-trans-9-Methoxy-1,2,3,3a,4,9b-hexahydro-[1]-benzopyrano[3,4-c]pyrrol-2-yl)butyl]-6-chloro-pyrido[2',3':4,5]thieno[3,2-d]pyrimidine-2,4(1H,3H)-dione hydrochloride]", "values": [
      {"measurement": "Ki", "setting": "α-1a adrenoreceptor; [2]", "result": 0.025, "unit": "nM"},
      {"measurement": "Ki", "setting": "[1]; [3]", "result": 0.059, "unit": "nM"},
      {"measurement": "Ki", "setting": "α-1b adrenoreceptor; [2]", "result": 1.13, "unit": "nM"},
      {"measurement": "Ki", "setting": "α-1d adrenoreceptor; [2]", "result": 0.108, "unit": "nM"}
    ]},
    {"smiles": "COc1cccc2c1[C@@H]1CN(CCCCn3c(=O)[nH]c4c(sc5ncc(-c6cccnc6)nc54)c3=O)C[C@H]1CO2", "note": "[Example 60, 3-[4-((3aS,9bR)-trans-9-Methoxy-1,2,3,3a,4,9b-hexahydro-[1]-benzopyrano[3,4-c]pyrrol-2-yl)butyl]-8-(3-pyridyl)-pyrazino[2',3':4,5]thieno[3,2-d]pyrimidine-2,4(1H,3H)-dione dihydrochloride]", "values": [
      {"measurement": "Ki", "setting": "α-1a adrenoreceptor; [2]", "result": 0.078, "unit": "nM"},
      {"measurement": "Ki", "setting": "[1]; [3]", "result": 0.187, "unit": "nM"},
      {"measurement": "Ki", "setting": "α-1b adrenoreceptor; [2]", "result": 14.2, "unit": "nM"},
      {"measurement": "Ki", "setting": "α-1d adrenoreceptor; [2]", "result": 1.82, "unit": "nM"}
    ]},
    {"smiles": "COc1cccc2c1[C@H]1CCN(CCCCn3c(=O)[nH]c4c(sc5cccnc54)c3=O)C[C@@H]1CO2", "note": "[Example 94, 3-[4-((4aR,10bS)-trans-10-Methoxy-1,3,4,4a,5,10b-hexahydro-2H-[1]-benzopyrano[3,4-c]pyrido-3-yl)butyl]-pyrido[2',3':4,5]thieno[3,2-d]pyrimidine-2,4(1H,3H)-dione dihydrochloride]", "values": [
      {"measurement": "Ki", "setting": "α-1a adrenoreceptor; [2]", "result": 0.097, "unit": "nM"},
      {"measurement": "Ki", "setting": "[1]; [3]", "result": 0.185, "unit": "nM"},
      {"measurement": "Ki", "setting": "α-1b adrenoreceptor; [2]", "result": 1.97, "unit": "nM"},
      {"measurement": "Ki", "setting": "α-1d adrenoreceptor; [2]", "result": 0.361, "unit": "nM"}
    ]},
    {"smiles": "COc1cc2[nH]c(=O)n(CCCCN3C[C@@H]4COc5cccc(OC)c5[C@@H]4C3)c(=O)c2cc1OC", "note": "(racemic) [Example 79, 3-[4-((±)-cis-9-Methoxy-1,2,3,3a,4,9b-hexahydro-[1]-benzopyrano[3,4-c]pyrrol-2-yl)butyl]-6,7-dimethoxy-quinazoline-2,4(1H,3H)-dione hydrochloride]", "values": [
      {"measurement": "Ki", "setting": "α-1a adrenoreceptor", "result": 0.174, "unit": "nM"},
      {"measurement": "Ki", "setting": "[1]", "result": 0.199, "unit": "nM"},
      {"measurement": "Ki", "setting": "α-1b adrenoreceptor", "result": 0.821, "unit": "nM"},
      {"measurement": "Ki", "setting": "α-1d adrenoreceptor", "result": 0.361, "unit": "nM"}
    ]},
    {"smiles": "COc1cccc2c1[C@@H]1CN(CCCCn3c(=O)[nH]c4c(sc5ccc(-c6ccccc6)nc54)c3=O)C[C@H]1CO2", "note": "[Example 52, 3-[4-((3aS,9bR)-trans-9-Methoxy-1,2,3,3a,4,9b-hexahydro-[1]-benzopyrano[3,4-c]pyrrol-2-yl)butyl]-8-phenyl-pyrido[2',3':4,5]thieno[3,2-d]pyrimidine-2,4(1H,3H)-dione dihydrochloride]", "values": [
      {"measurement": "Ki", "setting": "α-1a adrenoreceptor; [2]", "result": 1.08, "unit": "nM"},
      {"measurement": "Ki", "setting": "[1]; [3]", "result": 3.98, "unit": "nM"},
      {"measurement": "Ki", "setting": "α-1b adrenoreceptor; [2]", "result": 13.6, "unit": "nM"},
      {"measurement": "Ki", "setting": "α-1d adrenoreceptor; [2]", "result": 0.597, "unit": "nM"}
    ]},
    {"smiles": "COc1cccc2c1[C@@H]1CCN(CCCCn3c(=O)[nH]c4c(sc5ccc(-c6ccccc6)nc54)c3=O)C[C@H]1CO2", "note": "[Example 101, 3-[4-((4aS,10bR)-trans-10-Methoxy-1,3,4,4a,5,10b-hexahydro-2H-[1]-benzopyrano[3,4-c]pyrido-3-yl)butyl]-8-phenyl-pyrido[2',3':4,5]thieno[3,2-d]pyrimidine-2,4(1H,3H)-dione dihydrochloride]", "values": [
      {"measurement": "Ki", "setting": "α-1a adrenoreceptor; [2]", "result": 0.063, "unit": "nM"},
      {"measurement": "Ki", "setting": "[1]; [3]", "result": 1.27, "unit": "nM"},
      {"measurement": "Ki", "setting": "α-1b adrenoreceptor; [2]", "result": 8.41, "unit": "nM"},
      {"measurement": "Ki", "setting": "α-1d adrenoreceptor; [2]", "result": 0.597, "unit": "nM"}
    ]},
    {"smiles": "COc1cc(O)cc2c1[C@@H]1CN(CCCCn3c(=O)[nH]c4c(sc5ncc(-c6ccccc6)nc54)c3=O)C[C@@H]1CO2", "note": "(relative stereo) [Example 104, 3-[4-(-cis-7-Hydroxy-9-methoxy-1,2,3,3a,4,9b-hexahydro-[1]-benzopyrano[3,4-c]pyrrol-2-yl)butyl]-8-phenyl-pyrazino[2',3':4,5]thieno[3,2-d]pyrimidine-2,4(1H,3H)-dione]", "values": [
      {"measurement": "Ki", "setting": "α-1a adrenoreceptor; [2]", "result": 0.427, "unit": "nM"},
      {"measurement": "Ki", "setting": "[1]; [3]", "result": 3.59, "unit": "nM"},
      {"measurement": "Ki", "setting": "α-1b adrenoreceptor; [2]", "result": 266, "unit": "nM"},
      {"measurement": "Ki", "setting": "α-1d adrenoreceptor; [2]", "result": 5.2, "unit": "nM"}
    ]},
    {"smiles": "COc1cccc2c1[C@H]1CN(CCCCn3c(=O)[nH]c4c(sc5ccc(Cl)nc54)c3=O)C[C@@H]1CO2", "note": "[Example 6, 3-[4-((3aR,9bS)-trans-9-Methoxy-1,2,3,3a,4,9b-hexahydro-[1]-benzopyrano[3,4-c]pyrrol-2-yl)butyl]-8-chloro-pyrido[2',3':4,5]thieno[3,2-d]pyrimidine-2,4(1H,3H)-dione dihydrochloride]", "values": [
      {"measurement": "Ki", "setting": "α-1a adrenoreceptor; [2]", "result": 0.173, "unit": "nM"},
      {"measurement": "Ki", "setting": "[1]; [3]", "result": 0.409, "unit": "nM"},
      {"measurement": "Ki", "setting": "α-1b adrenoreceptor; [2]", "result": 2, "unit": "nM"},
      {"measurement": "Ki", "setting": "α-1d adrenoreceptor; [2]", "result": 0.302, "unit": "nM"}
    ]}
  ]
}
